In patent publication US20260216352A1, “DIRECTED BIOSYNTHESIS OF MODIFIED ANTHRAQUINONE-FUSED ENEDIYNES AS POTENTIAL CANCER THERAPEUTICS” (The Johns Hopkins University, priority 2023, published 2026):

Legend:
[1] = format: physicochemical
Text: With the indication that substituents larger than two carbons probably are not tolerated by the mutasynthetic approach, we focused on repurposing the methyl ketone to generate other smaller substituents. […] Removal of the acetyl protecting group in refluxing HCl-ethanol solution provided the 9-amino-5-iodoanthracene-g-thiolactone 45 (Scheme 4). Incorporation of 45 in a Δorf15 fermentation was again successful, as hoped, producing deshydroxy amino-DYN analogue 50 as the major product, accompanied by the low production of the desdihydroxy DYN analogue 51 (FIG. 31).

wild type M. chersina = experiment: Small-scale supplementation of wild type M. chersina fermentation and analysis of dynemicin A production; set-up: species or system Micromonospora chersina; conditions: for Restoration of Dyn production: wild type M. chersina, no added NaI / sodium halide in the fermentation medium
Protocol: Samples cut from medium 53 agar were used to inoculate 50 mL liquid medium 53 cultures. The cultures were shaken at 28° C. for seven days. Then, samples from these vegetative cultures were used to inoculate H881 media (10 g/L soluble starch, 5 g/L Pharmamedia, 1 g/L CaCO3, 0.05 g/L CuSO4·5 H2O and 0.0005 g/L NaI) for fermentation. These cultures were then shaken at 28° C. for 7 days.
Samples (5 mL) of fermentations were extracted with 5 mL of ethyl acetate by vortexing the emulsion for one minute and separating the layers by centrifugation at 4000×g. The ethyl acetate layer (4 mL) was isolated and dried by SpeedVac at room temperature. The residue was then resuspended in 200 μL of dimethyl sulfoxide and filtered through 0.2 μm polytetrafluoroethylene filters for analysis on an Agilent 1200 HPLC equipped with a Phenomenex Prodigy ODS3 100 Å, 5 μm, 250×4.6 mm column. Injections were 30 μL and separated with a gradient method increasing from 5% to 95% acetonitrile supplemented with 0.1% formic acid over 40 min, followed by a 10 min hold at 95% acetonitrile before re-equilibration. The method was run at 1 mL/min and monitored at 280, 375, 450 and 570 nm.
Wild type M. chersina mycelial stock […] was plated on med 53, Lam et al., 1995, with 2% agar and grown at 28° C. After 7 d, mycelia from the plate were inoculated into 50 mL med 53 liquid fermentation medium in a 125 mL Erlenmeyer flask and shaken at 250 rpm at 28° C. for another 7 d. This starter culture (2 mL) was inoculated into 50-mL H881 liquid medium, Lam et al., 1995, with or without added NaI (0.5 mg/L) in 250-mL Erlenmeyer flask and shaken at 250 rpm and 28° C. After 24 h, […] of 2-mM stock solutions of 5, 13 and 25 in DMSO (sterile filtered using 0.2-μm PTFE filters) were added to the respective flasks with or without NaI supplementation to provide a final concentration of the added compounds of […]. After shaking at 250 rpm and 28° C. for another 2 d, Diaion® HP-20 (0.50 g, sterilized by autoclave) was added to each flask and shaking was continued for another 4 d. After a total 7 d of fermentation, 5 mL from each sample was extracted with 5 mL of EtOAc by vortexing for 1 min. Extracts were centrifuged at 4000×g and 4° C. for 5 min, and 4 mL of each EtOAc layer was dried by SpeedVac without heating. Samples were dissolved in 200 μL DMSO, filtered through 0.2 μm PTFE filters and analyzed on an Agilent 1200 HPLC using a Prodigy ODS3 100 Å, […], 250×4.6 mm column (Phenomenex). A gradient method of 5-95% ACN+0.1% (v/v) formic acid over 40 min, followed by 10 min hold at 95% ACN before column re-equilibration was used at a 1 mL/min flow rate to achieve separation of metabolites. Production of dynemicin and other related metabolites was monitored at 280 nm, 450 nm, and 570 nm. […]

cancer cells = conditions: read-out: In vitro IC50; cited from earlier work
[2] = test system: transplantable cervical carcinoma HeLa, leukemia P388, L-1210 and melanoma B16; conditions: cited from earlier work

Compound	Restoration of Dyn production (wild type M. chersina)	IC50 (cancer cells)	In vivo ID50 [2]	further results
Nc1ccc2cc3c(I)ccc4c3c(c2c1)SC4=O [Compound 45, 9-Amino-5-iodo-2H-anthra[9,1-bc]thiophen-2-one]	–	–	–	Oxidative stability [1]: oxidatively unstable
Nc1ccc2c3c(c4ccccc4cc13)SC2=O [aminoanthracene 25, 5-Amino-2H-anthra[9,1-bc]thiophen-2-one]	failed to rescue Dyn production	–	–	–
O=C1Sc2c3ccccc3cc3c(Br)ccc1c23 [bromoanthracene 13, 5-Bromo-2H-anthra[9,1-bc]thiophen-2-one]	not restored	–	–	Effect on Dyn production (wild type M. chersina; wild type M. chersina fermentation medium with added sodium iodide, increasing concentrations of 13): decrease Dyn production
O=C1Sc2c3ccccc3cc3c(I)ccc1c23 [iodoanthracene 5, 5-Iodo-2H-anthra[9,1-bc]thiophen-2-one]	fully restored Dyn production	–	–	–
Calicheamicins	–	6 to 9 nM	0.0005 to 0.0015 mg/kg	–
Neocarzinostatin	–	225 to 900 nM	0.38 mg/kg	–
